Assay results from patent US20250099423A1, “PIPERAZINE-BASED AGONISTS OF LFA-1 AND VLA-4” (Texas Heart Institute, priority 2021, published 2025).

What was measured:
α4β1/VCAM-1 = molecular target: T1, α4β1/VCAM-1 (Homo sapiens, UniProt P05556+P13612); test: Static cell adhesion assay, Jurkat cells on VCAM-1 (α4β1/VCAM-1); format: cell-based; settings: ratio compound activity/control THI0019 (average 33 μM) run on the same plate
T1 construct: The Jurkat (VCAM-1 assays) and HSB (ICAM-1 assays) cell lines were obtained from American Type Culture Collection; endogenous in cells; host or cells: Jurkat cells (ATCC)
T1 sequence (P13612 34-1032): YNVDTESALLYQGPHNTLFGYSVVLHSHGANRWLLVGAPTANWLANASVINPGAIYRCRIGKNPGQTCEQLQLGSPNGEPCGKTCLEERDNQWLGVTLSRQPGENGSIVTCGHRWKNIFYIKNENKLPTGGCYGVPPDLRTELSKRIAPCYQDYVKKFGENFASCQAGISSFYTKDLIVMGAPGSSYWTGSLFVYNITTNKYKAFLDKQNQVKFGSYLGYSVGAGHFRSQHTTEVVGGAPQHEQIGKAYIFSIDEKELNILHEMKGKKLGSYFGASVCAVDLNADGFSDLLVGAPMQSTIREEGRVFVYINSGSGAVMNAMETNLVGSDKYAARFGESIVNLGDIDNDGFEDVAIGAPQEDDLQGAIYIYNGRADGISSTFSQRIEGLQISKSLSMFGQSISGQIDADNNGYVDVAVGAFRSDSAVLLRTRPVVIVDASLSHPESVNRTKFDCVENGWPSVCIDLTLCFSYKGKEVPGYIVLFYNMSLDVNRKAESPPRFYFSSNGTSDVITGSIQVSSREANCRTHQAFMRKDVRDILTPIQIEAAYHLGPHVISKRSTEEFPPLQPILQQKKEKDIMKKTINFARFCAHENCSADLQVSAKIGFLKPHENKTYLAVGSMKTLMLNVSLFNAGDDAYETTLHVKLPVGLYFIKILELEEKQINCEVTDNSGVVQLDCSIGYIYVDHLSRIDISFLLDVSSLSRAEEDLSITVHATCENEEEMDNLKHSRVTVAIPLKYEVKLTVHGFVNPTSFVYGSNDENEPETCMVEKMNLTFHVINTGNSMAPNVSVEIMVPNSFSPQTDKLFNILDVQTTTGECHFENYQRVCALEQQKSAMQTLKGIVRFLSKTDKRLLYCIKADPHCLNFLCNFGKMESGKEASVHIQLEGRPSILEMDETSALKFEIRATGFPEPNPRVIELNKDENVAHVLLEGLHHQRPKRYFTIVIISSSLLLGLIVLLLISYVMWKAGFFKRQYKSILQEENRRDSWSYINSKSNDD
T1 sequence (P05556 21-798): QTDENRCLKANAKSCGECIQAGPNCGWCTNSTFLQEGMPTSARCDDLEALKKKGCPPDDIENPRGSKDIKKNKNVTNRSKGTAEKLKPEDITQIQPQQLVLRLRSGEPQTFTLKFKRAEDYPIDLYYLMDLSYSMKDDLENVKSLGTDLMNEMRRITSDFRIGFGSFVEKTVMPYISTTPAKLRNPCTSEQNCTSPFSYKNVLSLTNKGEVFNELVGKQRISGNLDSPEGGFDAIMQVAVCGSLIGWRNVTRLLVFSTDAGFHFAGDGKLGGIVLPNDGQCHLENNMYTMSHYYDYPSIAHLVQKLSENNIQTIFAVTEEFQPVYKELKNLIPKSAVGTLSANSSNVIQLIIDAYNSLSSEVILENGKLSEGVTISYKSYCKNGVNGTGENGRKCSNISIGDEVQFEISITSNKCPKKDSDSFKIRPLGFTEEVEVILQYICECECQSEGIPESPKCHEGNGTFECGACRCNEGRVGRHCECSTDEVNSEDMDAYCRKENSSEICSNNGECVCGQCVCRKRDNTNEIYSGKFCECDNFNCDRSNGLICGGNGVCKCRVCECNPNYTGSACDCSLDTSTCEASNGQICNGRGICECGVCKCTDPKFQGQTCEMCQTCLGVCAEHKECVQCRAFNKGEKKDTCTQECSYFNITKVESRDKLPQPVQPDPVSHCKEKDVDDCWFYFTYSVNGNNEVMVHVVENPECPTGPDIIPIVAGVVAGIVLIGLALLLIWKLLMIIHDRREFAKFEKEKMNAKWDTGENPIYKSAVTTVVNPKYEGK
Description: (§1) For in vitro cell adhesion assays, compounds were dissolved in DMSO to make a series of stock solutions such that a 1:100 dilution in assay buffer would yield the desired final working concentrations in 1% DMSO (vehicle). Human VCAM-1 and ICAM-1 were purchased from R&D Systems (Minneapolis, MN). The Jurkat (VCAM-1 assays) and HSB (ICAM-1 assays) cell lines were obtained from American Type Culture Collection (Manassas, VA) and were maintained in recommended culture media.
(§2) Assays were performed as previously described in 1. Vanderslice, P., Woodside, D. G., Caivano, A. R., Decker, E. R., Munsch, C. L., Sherwood, S. J., Lejeune, W. S., Miyamoto, Y. J., McIntyre, B. W., Tilton, R. G., and Dixon, R. A. (2010) Potent in vivo suppression of inflammation by selectively targeting the high affinity conformation of integrin alpha4beta1. Biochem Biophys Res Commun 400, 619-624; and 2. Vanderslice, P., Biediger, R. J., Woodside, D. G., Brown, W. S., Khounlo, S., Warier, N. D., Gundlach, C. W. t., Caivano, A. R., Bornmann, W. G., Maxwell, D. S., McIntyre, B. W., Willerson, J. T., and Dixon, R. A. (2013) Small molecule agonist of very late antigen-4 (VLA-4) integrin induces progenitor cell adhesion. J Biol Chem 288, 19414-19428. VCAM-1 or ICAM-1 ligand in 50 μL of 50 mM Tris-HCl (pH 7.4), 150 mM NaCl, (TBS) was added to wells of a 96-well plate and allowed to coat overnight at 4° C. To maximize the window to evaluate agonist activity, a sub-optimal coating concentration of ligand was used, typically between 0.5 and 5 μg/mL in 50 μL TBS for VCAM-1 and ICAM-1 respectively. This ligand concentration corresponded approximately to that which would yield≤ 5% adhesion as determined by dose-response curves. Briefly, 2×10^6 cells were labeled for 30 minutes with calcein-AM (Molecular Probes), washed, resuspended in binding buffer, and added to triplicate wells of ligand-coated plates (2×10^5 cells/well) that had been blocked with 2% BSA. After a 30-minute incubation at 37° C., the plates were washed 3 times with binding buffer, the adherent cells were lysed, and fluorescence was measured on a Tecan Safire^2 plate reader. The binding buffer was PBS with 1 mM MgCl2, 50% FBS for α4β1/VCAM-1 assays and PBS with 2 mM MgCl2, 5 mM EGTA, 50% FBS for αLβ2/ICAM-1 assays. EC50 is defined as the concentration of compound required to achieve 50% of the maximal response.

LFA-1 = molecular target: T2, LFA-1 (Homo sapiens, UniProt P05107+P20701); test: Static cell adhesion assay, HSB cells on ICAM-1 (αLβ2/ICAM-1; LFA-1); format: cell-based; settings: Dose 3 μM, compound and THI0349 at the same concentration; ratio >1 = more potent agonist
T2 construct: The Jurkat (VCAM-1 assays) and HSB (ICAM-1 assays) cell lines were obtained from American Type Culture Collection; endogenous in cells; host or cells: HSB cells (ATCC)
T2 sequence (P20701 26-1170): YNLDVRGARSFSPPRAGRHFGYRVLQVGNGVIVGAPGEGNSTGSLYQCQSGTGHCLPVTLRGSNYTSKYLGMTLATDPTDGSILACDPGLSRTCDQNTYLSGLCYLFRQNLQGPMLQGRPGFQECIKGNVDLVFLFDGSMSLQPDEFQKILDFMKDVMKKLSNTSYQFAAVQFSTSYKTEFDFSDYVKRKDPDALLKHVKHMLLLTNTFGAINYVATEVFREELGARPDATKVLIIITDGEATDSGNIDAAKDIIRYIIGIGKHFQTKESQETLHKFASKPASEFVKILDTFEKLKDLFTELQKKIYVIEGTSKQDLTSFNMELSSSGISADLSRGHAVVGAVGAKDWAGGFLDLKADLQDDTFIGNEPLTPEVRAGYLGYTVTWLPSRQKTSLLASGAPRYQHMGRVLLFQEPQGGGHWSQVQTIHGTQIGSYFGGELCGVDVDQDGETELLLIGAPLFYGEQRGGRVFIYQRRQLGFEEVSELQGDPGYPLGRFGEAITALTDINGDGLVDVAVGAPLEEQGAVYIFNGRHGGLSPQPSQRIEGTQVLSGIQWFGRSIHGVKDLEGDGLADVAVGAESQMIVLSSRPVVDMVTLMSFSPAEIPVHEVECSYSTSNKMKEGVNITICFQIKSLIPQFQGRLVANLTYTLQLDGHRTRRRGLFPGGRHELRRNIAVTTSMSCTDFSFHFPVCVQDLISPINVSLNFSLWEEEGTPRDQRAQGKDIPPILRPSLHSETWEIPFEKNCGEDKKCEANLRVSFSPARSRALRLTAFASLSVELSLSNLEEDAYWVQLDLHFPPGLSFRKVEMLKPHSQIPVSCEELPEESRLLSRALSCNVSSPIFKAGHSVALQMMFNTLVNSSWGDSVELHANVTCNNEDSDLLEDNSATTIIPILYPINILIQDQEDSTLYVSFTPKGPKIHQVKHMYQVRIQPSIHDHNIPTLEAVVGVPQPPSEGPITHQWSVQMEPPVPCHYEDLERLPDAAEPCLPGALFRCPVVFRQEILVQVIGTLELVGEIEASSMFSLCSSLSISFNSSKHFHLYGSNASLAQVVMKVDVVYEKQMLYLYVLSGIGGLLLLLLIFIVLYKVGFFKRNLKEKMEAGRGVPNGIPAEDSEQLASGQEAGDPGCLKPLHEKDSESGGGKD
T2 sequence (P05107 23-769): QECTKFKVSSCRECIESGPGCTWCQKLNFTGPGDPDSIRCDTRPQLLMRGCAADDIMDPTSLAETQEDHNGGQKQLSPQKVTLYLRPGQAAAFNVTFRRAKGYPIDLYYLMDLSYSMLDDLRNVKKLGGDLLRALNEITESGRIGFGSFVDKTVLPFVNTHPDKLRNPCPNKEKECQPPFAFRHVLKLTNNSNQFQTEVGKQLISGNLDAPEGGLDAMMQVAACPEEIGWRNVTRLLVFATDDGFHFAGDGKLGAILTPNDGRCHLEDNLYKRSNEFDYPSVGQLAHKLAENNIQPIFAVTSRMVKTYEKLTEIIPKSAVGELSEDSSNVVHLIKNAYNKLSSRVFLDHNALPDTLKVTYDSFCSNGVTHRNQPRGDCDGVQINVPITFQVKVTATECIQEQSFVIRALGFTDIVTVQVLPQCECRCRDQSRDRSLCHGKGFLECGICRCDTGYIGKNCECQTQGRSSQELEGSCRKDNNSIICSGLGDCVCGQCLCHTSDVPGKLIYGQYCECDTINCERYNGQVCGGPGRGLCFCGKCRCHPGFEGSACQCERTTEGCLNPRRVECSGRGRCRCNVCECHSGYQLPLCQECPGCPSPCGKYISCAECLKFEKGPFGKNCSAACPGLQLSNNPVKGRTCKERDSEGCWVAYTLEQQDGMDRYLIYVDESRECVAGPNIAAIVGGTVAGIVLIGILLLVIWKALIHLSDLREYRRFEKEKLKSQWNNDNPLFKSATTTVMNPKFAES
Description: as §1, §2
THI0019 and THI0349 (average 11 μM) reported values here were obtained under the assay conditions reported herein and ran higher in the presence of serum than those values under different assay conditions. […] Relative to THI0019 (average 33 μM) as a control against CS1, the ratio of (compound activity/control) is as follows: Group I< or =1. Group II at least a ratio of >1 up to 2× that of THI0019 ran on the same plate; Group III is >2× of THI0019 but less than 5×; and Group IV>5× of THI0019 (with an upper limit of approximately 200 mM). In relation to LAD (Leukocyte Adhesion Deficiency), LFA-1 ratios are determined by dividing the relative fluorescence units (RFU) of each compound over that of the reference standard of THI0349, (RFU Compound/RFU of THI0349). Against LFA-1, the signal for THI0349 at 3 μM was compared to the claimed compounds at the same concentration.

Compound	LAD Raw Fluorescence Units against LFA-1; Ratio of raw counts Compound/THI0349 (LFA-1)	Average Ratio Compound to THI0019 (Activity against CS1) (α4β1/VCAM-1)
COc1ccc(CN(Cc2cccc(N(C)C)c2)C(=O)CN2CC(=O)N(CC(=O)N(Cc3ccc(OC)cc3)Cc3cccc(N(C)C)c3)CC2=O)cc1	–	Group II (Group II at least a ratio of >1 up to 2× that of THI0019 ran on the same plate)
COc1cccc(CN(Cc2cccc(OC)c2)C(=O)CN2CC(=O)N(CC(=O)N(Cc3cccc(OC)c3)Cc3cccc(OC)c3)CC2=O)c1 [2,2′-(2,5-dioxopiperazine-1,4-diyl)bis(N,N-bis(3-methoxybenzyl)acetamide)]	–	Group I (Group I< or =1)
CN(C)c1ccc(CN(Cc2ccc(N(C)C)cc2)C(=O)CN2CC(=O)N(CC(=O)N(Cc3ccc(N(C)C)cc3)Cc3ccc(N(C)C)cc3)CC2=O)cc1 [2,2′-(2,5-dioxopiperazine-1,4-diyl)bis(N,N-bis(4-(dimethylamino)benzyl)acetamide)]	–	Group I (Group I< or =1)
O=C1CN(CC(=O)N(Cc2cccs2)Cc2cccs2)C(=O)CN1CC(=O)N(Cc1cccs1)Cc1cccs1 [2,2′-(2,5-dioxopiperazine-1,4-diyl)bis(N,N-bis(thiophen-2-ylmethyl)acetamide)]	–	Group III (Group III is >2× of THI0019 but less than 5×)
COc1ccc(CN(CC(C)C)C(=O)CN2CC(=O)N(CC(=O)N(Cc3ccc(OC)cc3)CC(C)C)CC2=O)cc1 [2,2′-(2,5-dioxopiperazine-1,4-diyl)bis(N-isobutyl-N-(4-methoxybenzyl)acetamide)]	0.15 fold response	Group III (Group III is >2× of THI0019 but less than 5×)
COc1ccc(CN(CC(C)C)C(=O)CN2CCN(CC(=O)N(Cc3ccc(OC)cc3)CC(C)C)C(=O)C2)cc1 [2,2′-(2-oxopiperazine-1,4-diyl)bis(N-isobutyl-N-(4-methoxybenzyl)acetamide)]	0.19 fold response	Group III (Group III is >2× of THI0019 but less than 5×)
COc1ccc(CN(Cc2ccc(OC)cc2)C(=O)CN2CCN(CC(=O)N(Cc3ccc(OC)cc3)Cc3ccc(OC)cc3)CC2)cc1 [2,2′-(piperazine-1,4-diyl)bis(N,N-bis(4-methoxybenzyl)acetamide)]	–	Group I (Group I< or =1)
O=C(CN1CCN(CC(=O)N(Cc2cccs2)Cc2cccs2)CC1)N(Cc1cccs1)Cc1cccs1 [2,2′-(piperazine-1,4-diyl)bis(N,N-bis(thiophen-2-ylmethyl)acetamide)]	0.4 fold response	Group II (Group II at least a ratio of >1 up to 2× that of THI0019 ran on the same plate)
COc1ccc(CN(CC(C)C)C(=O)CN2CCN(CC(=O)N(Cc3ccc(OC)cc3)CC(C)C)CC2)cc1 [2,2′-(piperazine-1,4-diyl)bis(N-isobutyl-N-(4-methoxybenzyl)acetamide)]	0.9 fold response	Group IV (Group IV>5× of THI0019 (with an upper limit of approximately 200 mM))
COc1ccc(CN(Cc2ccc(OC)cc2)C(=O)CN2CCN(C(=O)c3cccc(OC)c3)CC2=O)cc1 [2-(4-(3-methoxybenzoyl)-2-oxopiperazin-1-yl)-N,N-bis(4-methoxybenzyl)acetamide]	0.6 fold response	Group IV (Group IV>5× of THI0019 (with an upper limit of approximately 200 mM))
COc1ccc(CN(Cc2ccc(N(C)C)cc2)C(=O)CN2CCN(C(=O)OCc3cccc(OC)c3)CC2=O)cc1 [3-methoxybenzyl 4-(2-((4-(dimethylamino)benzyl)(4-methoxybenzyl)amino)-2-oxoethyl)-3-oxopiperazine-1-carboxylate]	4.2 fold increased response	Group II (Group II at least a ratio of >1 up to 2× that of THI0019 ran on the same plate)
COc1ccc(CN(Cc2ccc(OC)cc2)C(=O)CN2CCN(C(=O)OCc3cccc(OC)c3)CC2)cc1 [3-methoxybenzyl 4-(2-(bis(4-methoxybenzyl)amino)-2-oxoethyl)piperazine-1-carboxylate]	2.2 fold increased response	Group II (Group II at least a ratio of >1 up to 2× that of THI0019 ran on the same plate)
O=C1CN(CCOC(=O)N(Cc2cccs2)Cc2cccs2)C(=O)CN1CCOC(=O)N(Cc1cccs1)Cc1cccs1 [(2,5-dioxopiperazine-1,4-diyl)bis(ethane-2,1-diyl) bis(bis(thiophen-2-ylmethyl)carbamate)]	2 fold increased response	Group II (Group II at least a ratio of >1 up to 2× that of THI0019 ran on the same plate)

Further lines, with some results ahead:

LAD Raw Fluorescence Units against LFA-1; Ratio of raw counts Compound/THI0349 (LFA-1)	Compound	Average Ratio Compound to THI0019 (Activity against CS1) (α4β1/VCAM-1)
5.9 fold increased response	COc1ccc(CN(Cc2ccc(OC)cc2)C(=O)CN2CCN(CC(=O)N(Cc3ccc(OC)cc3)Cc3ccc(OC)cc3)C(=O)C2)cc1 [2,2′-(2-oxopiperazine-1,4-diyl)bis(N,N-bis(4-methoxybenzyl)acetamide)]	Group I (Group I< or =1)
4.6 fold increased response	COc1ccc(CCOC(=O)N2CCN(CC(=O)N(Cc3ccc(OC)cc3)Cc3ccc(OC)cc3)CC2)cc1 [4-methoxyphenethyl 4-(2-(bis(4-methoxybenzyl)amino)-2-oxoethyl)piperazine-1-carboxylate]	Group II (Group II at least a ratio of >1 up to 2× that of THI0019 ran on the same plate)
7.8 fold increased response	COc1cccc(CN(Cc2ccc(N(C)C)cc2)C(=O)OCCN2CC(=O)N(CCOC(=O)N(Cc3ccc(N(C)C)cc3)Cc3cccc(OC)c3)CC2=O)c1 [(2,5-dioxopiperazine-1,4-diyl)bis(ethane-2,1-diyl) bis(4-(dimethylamino)benzyl (3-methoxybenzyl)carbamate)]	Group I (Group I< or =1)
9.9 fold increased response	COc1ccc(CN(Cc2ccc(N(C)C)cc2)C(=O)OCCN2CC(=O)N(CCOC(=O)N(Cc3ccc(OC)cc3)Cc3ccc(N(C)C)cc3)CC2=O)cc1 [(2,5-dioxopiperazine-1,4-diyl)bis(ethane-2,1-diyl) bis(4-(dimethylamino)benzyl (4-methoxybenzyl)carbamate)]	Group I (Group I< or =1)
3.4 fold increased response	COc1cccc(CN(Cc2cccc(OC)c2)C(=O)OCCN2CC(=O)N(CCOC(=O)N(Cc3cccc(OC)c3)Cc3cccc(OC)c3)CC2=O)c1 [(2,5-dioxopiperazine-1,4-diyl)bis(ethane-2,1-diyl) bis(bis(3-methoxybenzyl)carbamate)]	Group I (Group I< or =1)
7.8 fold increased response	COc1ccc(CN(Cc2ccc(OC)cc2)C(=O)OCCN2CC(=O)N(CCOC(=O)N(Cc3ccc(OC)cc3)Cc3ccc(OC)cc3)CC2=O)cc1 [(2,5-dioxopiperazine-1,4-diyl)bis(ethane-2,1-diyl) bis(bis(4-methoxybenzyl)carbamate)]	Group I (Group I< or =1)
